# Where two headings read alike, the source gives them in different places.
# Key:
# sodium channel (site 2) = assay: Off-target ligand displacement assay, panel of 28 receptors, ion channels and transporters; format: binding; details: at 10 μM; only hit among 28 entities screened
# [1] = tested on: bFGF-induced angiogenesis; assay: bFGF matrigel plug angiogenesis in vivo; parameters: species or system Female CD-1 mice; details: PO, BID×7, dosed as prodrug Compound 74
# Protocol: Female CD-1 mice (19-22 g), n=4 per treatment group, were implanted subcutaneously with 500 μL growth factor reduced matrigel containing 1500 ng/mL bFGF or 0 ng/mL bFGF as a negative control. Test compounds were administered by oral gavage at the indicated doses and schedules. […] Sutent is an inhibitor of KDRand served as a positive drug control in this study. Animals were euthanized on day 7. Matrigel was harvested, weighed and homogenized in phosphate buffered saline, pH 7.4. Samples were centrifuged and the resulting lysate analyzed for hemoglobin concentration by colorimetric reaction.
# Abl (T315I) = Abl (T315I) (Homo sapiens, UniProt P00519, T315I); assay: protein kinase IC50 determination (ATP at Km); format: biochemical; details: ATP concentration at Km
# Arg = Arg (Homo sapiens, UniProt P42684); assay: protein kinase IC50 determination (ATP at Km); format: biochemical; details: ATP concentration at Km
# Sequence of Arg (P42684 whole entry): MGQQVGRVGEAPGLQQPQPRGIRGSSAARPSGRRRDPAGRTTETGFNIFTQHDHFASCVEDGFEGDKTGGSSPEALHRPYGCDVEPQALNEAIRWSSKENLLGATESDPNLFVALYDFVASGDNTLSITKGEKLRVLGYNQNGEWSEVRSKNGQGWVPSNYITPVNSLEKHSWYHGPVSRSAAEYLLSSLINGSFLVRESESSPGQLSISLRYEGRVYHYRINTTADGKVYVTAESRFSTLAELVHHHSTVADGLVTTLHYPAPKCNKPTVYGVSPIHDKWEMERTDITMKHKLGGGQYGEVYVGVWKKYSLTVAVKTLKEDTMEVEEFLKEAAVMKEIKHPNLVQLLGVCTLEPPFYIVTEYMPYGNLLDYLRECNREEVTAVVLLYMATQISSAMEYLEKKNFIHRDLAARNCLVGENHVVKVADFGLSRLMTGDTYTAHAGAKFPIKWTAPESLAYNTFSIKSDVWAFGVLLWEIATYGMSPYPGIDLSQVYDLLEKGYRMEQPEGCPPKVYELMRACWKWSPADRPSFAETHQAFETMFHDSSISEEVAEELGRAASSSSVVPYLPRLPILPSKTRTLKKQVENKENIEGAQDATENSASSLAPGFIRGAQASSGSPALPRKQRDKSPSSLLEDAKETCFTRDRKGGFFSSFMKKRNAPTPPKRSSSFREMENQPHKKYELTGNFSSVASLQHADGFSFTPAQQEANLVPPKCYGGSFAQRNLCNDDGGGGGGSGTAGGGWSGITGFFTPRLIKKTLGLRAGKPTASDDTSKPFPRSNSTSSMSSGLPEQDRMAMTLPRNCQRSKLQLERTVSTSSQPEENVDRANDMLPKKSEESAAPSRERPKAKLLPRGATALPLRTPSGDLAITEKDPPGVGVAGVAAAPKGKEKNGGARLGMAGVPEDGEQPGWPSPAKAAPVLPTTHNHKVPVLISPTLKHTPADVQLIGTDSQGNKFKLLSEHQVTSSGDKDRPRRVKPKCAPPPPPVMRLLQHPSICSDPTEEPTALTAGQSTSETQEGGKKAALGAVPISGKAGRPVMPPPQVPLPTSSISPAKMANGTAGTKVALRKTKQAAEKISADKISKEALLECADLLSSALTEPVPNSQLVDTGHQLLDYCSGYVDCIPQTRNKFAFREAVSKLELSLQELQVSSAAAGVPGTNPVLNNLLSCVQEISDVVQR
# Pharmacokinetics in rat = format: in vivo, male Sprague-Dawley rats
# Text: Non-compartmental (model independent) methods were used to analyze the plasma concentration time-curves derived from all species as described below. Clearance (Cl), calculated percent extraction ratios (ER %), volume of distribution (Vz), time to […] (t1/2) and exposure (AUC, area under the curve) values are provided below for mouse, rat, and monkey, respectively.
# 2. […] Blood was sampled at the same time points as listed for the Mouse PK study.
# RPMI 8226 cells = assay: RPMI 8226 multiple myeloma tumor model; format: in vivo, Female Scid-beige mice
# Protocol: Female Scid-beige mice (17-20 g), n=8 per group, were implanted with 15×10^6 RPMI 8226 cells subcutaneously on the right flank with either vehicle (20% Trappsol, 10 mL/kg, PO, BID×14) or Compound 74 (100 mg/kg active drug, PO, BID×14). Test compounds were administered by oral gavage at the indicated doses and schedules when tumors reached 200±50 mm^3 in size.
# [2] = tested on: TNF-α production in whole blood; assay: TNF-α production in LPS-treated whole blood (ELISA); format: cell-based; details: whole blood treated with LPS, read-out: apparent IC50, inhibition of TNF-α production
# Hck = Hck (Homo sapiens, UniProt P08631); assay: protein kinase IC50 determination (ATP at Km); format: biochemical; details: ATP concentration at Km
# Sequence of Hck (P08631 whole entry, species assumed): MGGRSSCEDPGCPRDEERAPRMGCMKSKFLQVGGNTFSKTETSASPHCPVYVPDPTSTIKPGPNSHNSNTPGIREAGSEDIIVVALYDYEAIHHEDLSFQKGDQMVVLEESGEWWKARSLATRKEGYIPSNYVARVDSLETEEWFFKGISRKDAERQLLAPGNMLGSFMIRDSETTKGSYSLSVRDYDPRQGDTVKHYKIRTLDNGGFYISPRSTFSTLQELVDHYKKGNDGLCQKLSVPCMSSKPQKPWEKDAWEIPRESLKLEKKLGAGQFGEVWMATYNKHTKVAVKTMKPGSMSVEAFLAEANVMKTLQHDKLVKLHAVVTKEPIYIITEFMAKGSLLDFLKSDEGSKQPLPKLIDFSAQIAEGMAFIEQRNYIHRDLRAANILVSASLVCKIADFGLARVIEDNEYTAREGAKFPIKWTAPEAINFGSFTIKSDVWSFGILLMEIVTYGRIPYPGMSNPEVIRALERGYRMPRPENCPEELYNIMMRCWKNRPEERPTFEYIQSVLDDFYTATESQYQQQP
# [3] = tested on: Collagen Induced Arthritis (CIA); assay: Rat model of collagen induced arthritis (CIA); format: in vivo, Female Lewis rats; details: BID×7, dosed as prodrug Compound 74; for ED50: PO
# Protocol: Female Lewis rats (200 g); n=8 per treatment group were injected with type II collagen/Freund's incomplete adjuvant (300 μL injection of 0.6 mg collagen, dorsal surface Day 0 and Day 6). […] ENBREL® served as a positive control. Compounds were administered on days 11-18. Ankle diameter was measured at day 11 and every day thereafter (FIG. 70). At study end paw weight and microscopic histology were determined. Both hind paws and knees were removed, hind paws weighed and then placed, with knees, in formalin. Following 1-2 days in fixative and 4-5 days in decalcifier, ankle joints and knees were processed, embedded, sectioned and stained with toluidine blue. Ankles and knees were given scores of 0-5 for inflammation, pannus formation and bone resorption.
# BCR-Abl = target: T1, BCR-Abl (Homo sapiens, UniProt P00519); assay: K562 immunoblot for p-Abl, pSTAT5, pCrkL; format: cell-based; details: K562 cells, 2 hours, 37-5000 nM
# T1 construct: BCR (N-terminal part, natural fusion partner of the Philadelphia-chromosome chimera); endogenous in cells; host or cells: K562; the other entry of the earlier key: BCR (P11274, Breakpoint cluster region protein)
# CYP2C19 = target: T2, CYP2C19 (Homo sapiens, UniProt P33261); assay: CYP inhibition assay (LC/MS, pooled human liver microsomes); format: in vitro ADME; details: n=1, read-out: CYPC19 IC50
# T2 construct: using pooled human liver microsomes (n=1); from tissue; host or cells: pooled human liver microsomes
# T2 sequence (P33261 whole entry): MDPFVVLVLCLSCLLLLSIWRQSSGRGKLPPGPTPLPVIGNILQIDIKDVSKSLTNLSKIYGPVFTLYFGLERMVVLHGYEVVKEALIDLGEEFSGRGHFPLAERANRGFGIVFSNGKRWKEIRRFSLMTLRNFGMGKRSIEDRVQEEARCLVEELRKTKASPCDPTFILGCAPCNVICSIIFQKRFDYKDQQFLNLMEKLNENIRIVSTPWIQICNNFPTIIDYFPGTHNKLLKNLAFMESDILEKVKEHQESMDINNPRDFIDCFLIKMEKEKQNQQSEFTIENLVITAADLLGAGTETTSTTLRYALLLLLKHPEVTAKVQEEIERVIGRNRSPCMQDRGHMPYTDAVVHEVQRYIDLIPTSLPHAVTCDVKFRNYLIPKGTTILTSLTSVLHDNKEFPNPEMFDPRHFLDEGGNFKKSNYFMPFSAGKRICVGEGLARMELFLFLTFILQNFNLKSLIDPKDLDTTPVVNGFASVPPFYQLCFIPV
# CYP2C9 = target: T3, CYP2C9 (Homo sapiens, UniProt P11712); assay: as above; format: in vitro ADME; details: n=1
# T3 construct: using pooled human liver microsomes (n=1); from tissue; host or cells: pooled human liver microsomes
# T3 sequence (P11712 whole entry): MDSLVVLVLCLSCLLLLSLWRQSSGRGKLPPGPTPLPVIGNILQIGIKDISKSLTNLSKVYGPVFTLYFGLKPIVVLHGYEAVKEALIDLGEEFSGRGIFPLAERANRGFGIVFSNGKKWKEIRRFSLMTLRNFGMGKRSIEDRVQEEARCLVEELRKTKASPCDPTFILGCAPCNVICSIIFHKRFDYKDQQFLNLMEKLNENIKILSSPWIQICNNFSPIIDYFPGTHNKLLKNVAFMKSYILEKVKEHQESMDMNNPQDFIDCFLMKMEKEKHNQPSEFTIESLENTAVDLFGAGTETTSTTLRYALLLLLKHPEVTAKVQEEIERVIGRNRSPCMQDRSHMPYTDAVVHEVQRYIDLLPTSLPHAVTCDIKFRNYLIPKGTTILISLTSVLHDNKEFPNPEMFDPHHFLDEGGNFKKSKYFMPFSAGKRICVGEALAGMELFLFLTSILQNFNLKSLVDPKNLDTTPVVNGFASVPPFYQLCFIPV
# Lyn = Lyn (Homo sapiens, UniProt P07948); assay: protein kinase IC50 determination (ATP at Km); format: biochemical; details: ATP concentration at Km
# Sequence of Lyn (P07948 whole entry, species assumed): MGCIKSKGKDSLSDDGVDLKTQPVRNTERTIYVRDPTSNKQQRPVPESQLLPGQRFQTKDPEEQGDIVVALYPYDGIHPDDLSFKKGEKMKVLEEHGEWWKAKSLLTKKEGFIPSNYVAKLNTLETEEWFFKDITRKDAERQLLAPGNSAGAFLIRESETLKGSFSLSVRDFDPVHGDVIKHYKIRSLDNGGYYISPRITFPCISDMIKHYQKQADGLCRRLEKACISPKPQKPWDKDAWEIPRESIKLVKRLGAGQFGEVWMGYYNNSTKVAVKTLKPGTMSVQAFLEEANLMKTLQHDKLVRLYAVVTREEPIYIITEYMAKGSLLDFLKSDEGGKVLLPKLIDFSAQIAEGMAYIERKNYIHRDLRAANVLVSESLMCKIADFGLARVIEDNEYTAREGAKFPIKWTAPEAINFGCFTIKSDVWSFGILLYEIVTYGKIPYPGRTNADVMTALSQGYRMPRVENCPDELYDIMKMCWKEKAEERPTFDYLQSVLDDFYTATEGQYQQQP
# [4] = male, Sprague-Dawley, plasma, IV: 1 mg/kg
smiles,measurement,setting,value
"Cc1ccc(-n2nc(C(C)(C)C)cc2NC(=O)NCc2cc(F)ccc2Oc2ccc3c(cnn3CCO)c2)cc1 [Compound 72, 1-(3-tert-butyl-1-p-tolyl-1H-pyrazol-5-yl)-3-(5-fluoro-2-(1-(2-hydroxyethyl)-1H-indazol-5-yloxy)benzyl)urea]","ligand displacement, sodium channel (site 2)",sodium channel (site 2),> 50%
same,inhibition of bFGF-induced angiogenesis (matrigel hemoglobin),"[1]; mice, 100 mg/kg active drug, p<0.05",72%
same,"bFGF-induced angiogenesis, dose response","[1]; mice, 10, 30 or 100 mg/kg active drug",inhibited bFGF-induced angiogenesis in a dose-dependent manner
same,IC50,Abl (T315I),68 nM
same,IC50,Arg,10 nM
same,AUC,Pharmacokinetics in rat; IV: 1 mg/kg,AUC = 4.7 μg-hr/kg
same,ER,Pharmacokinetics in rat; IV: 1 mg/kg,ER = 4.6%
same,AUC,Pharmacokinetics in rat; Oral: 30 mg/kg,AUC = 35 μg-hr/kg
same,F,Pharmacokinetics in rat; Oral: 30 mg/kg,F = 15%
same,clearance,Pharmacokinetics in rat; [4],3.2 mL/min/kg
same,half-life,Pharmacokinetics in rat; [4],3.9 h
same,Vd,"Pharmacokinetics in rat; male, Sprague-Dawley, plasma, IV: 1 mg/kg, read-out: Vz",0.048 L/kg
same,Cmax,"Pharmacokinetics in rat; male, Sprague-Dawley, plasma, Oral: 30 mg/kg",4500 ng/mL
same,body weight loss,"RPMI 8226 cells; RPMI 8226 tumor-bearing Scid-beige mice, throughout treatment",less than 10%
same,effect on tumor growth,"RPMI 8226 cells; RPMI 8226 tumors, 100 mg/kg PO, BID×14, dosed as Compound 74",statistically significant effect on tumor growth
same,% Tumor growth inhibition (TGI),"RPMI 8226 cells; RPMI 8226 tumors, 100 mg/kg active drug, PO, BID×14, dosed as Compound 74",67%
same,IC50,[2],30 nM
same,IC50,Hck,26 nM
same,disease course by the end of the study,"[3]; rat CIA, 10 mg/kg PO",induced disease regression
same,parameters associated with the disease model,"[3]; rat CIA, 0.3, 1, 3 or 10 mg/kg PO",dose-dependently improved all of the parameters
same,ED50,"[3]; rat CIA, read-out: apparent ED50, ankle diameter",1.5 mg/kg
same,ED50,"[3]; rat CIA, read-out: apparent ED50, histopathology",3 mg/kg
same,inhibition of autophosphorylation of BCR-Abl and phosphorylation of its substrates STAT5 and CrkL (immunoblot),BCR-Abl,capable of inhibiting
same,IC50,CYP2C19,25000 nM
same,IC50,CYP2C9,5000 nM
same,IC50,Lyn,25 nM

# Source: patent US8039639B2, “Kinase inhibitors and methods of use thereof” (Array BioPharma Inc., priority 2006, dated 2011)
